Results from patent US20240109917A1 (ACTELION PHARMACEUTICALS LTD, priority 2020, published 2024).

Key:
PDGFRβ = PDGFRβ (Rattus norvegicus (Rat), UniProt Q05030); test: PDGFRβ Cellular Assay (PDGFRb P-Y751 HTRF in A10 cells stimulated with PDGF-BB); assay type: cell-based; settings: read-out: PDGFR Cellular IC50
Method: II. Methods and Procedures
Cell Culture and Preparation: Cells are cultured according to ATCC procedure (5) with the addition of the antibiotic penicillin-streptomycin. If working from frozen, cells should be thawed according to ATCC procedure. Depending on the cell density of frozen vial, cells will need time to recover from thaw. An 80% confluent T75 flask should be enough for one 384 well plate.
Stock Solutions: Rat PDGFBB. A 100 ug/mL stock is prepared by reconstituting 50 ug in 500 uL of 4 mM HCl and 0.1% BSA. It can be stored for a month at 4° C., or aliquoted out and frozen in the −20/−80° C. to avoid multiple free-thaw cycles.
Freshly Prepared Solutions:
1× Cisbio cell lysis buffer. The cell lysis buffer is diluted 4-fold with molecular grade water. The blocking agent is then diluted 25-fold in the diluted lysis buffer.
Antibody solutions. Equal amounts d2 and cryptate antibody are diluted 20-fold in detection buffer.
Rat PDGFBB. A working stock of 100 ng/mL is created from the stock solution in 10% FBS culture media.
Step 1: Plating Cells: Media from the A10 cell flask is aspirated. The cells are rinsed with PBS and then trypsinized to disperse the cell layer. The cells are then pelleted are resuspended to 1.25e5 cells/mL. […] Plates are covered and placed in the incubator (37° C. 5% CO2) overnight to allow cells to adhere.
Step 2: Compound Dispense: Approximately 18 hours after plating, dispense 40 nL compound onto cells using Echo. Column 12 is the neutral control DMSO, column 24 is the inhibitor control 10 mM Imatinib (10 uM final assay concentration). The plate is returned to the incubator for 3 hours.
After 10 minutes the media is removed by flicking the plate.
Step 4: Cell lysis and antibody addition: 20 uL lysis buffer per well is added to the plate via Tempest. 5 uL antibody solution is added per well via the Tempest. The plate is placed on the shaker at 230 rpm for 1 hour at room temperature.
Step 5: Detection: The plate is read using the HTRF module on the BMG Pherastar. Data is analyzed using Genedata Screener.
III. Calculations and Formulas
% Inhibition: % Inhibition=(NC−sample)/(NC−PC)*100 where NC is the mean of negative control (reactions without inhibitor), and PC is the mean of positive control (10 μM imatinib).
IC50 values are determined from a 4-parameter fit, using the following equation: Y=Bottom+(Top−Bottom)/(1+10((Log IC50−X)*Hill slope)), where X=log10 of the compound concentration; top can be defined by PC; bottom defined by NC.

[1] = molecular target: His6-TEV-PDGFRβ (557-1016) (Homo sapiens (Human), UniProt P09619); test: PDGFRβ HTRF Assay; assay type: biochemical; settings: read-out: PDGFR HTRF IC50
How it was run: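 Human PDGFRβ (557-1016) pre-incubated with compound for 30 min at RT in pH 7.5 HEPES/MgCl2/EGTA/Brij-35/DTT buffer. Reaction started with ATP and TK-biotin peptide, run 3 h at RT, then quenched with EDTA-containing Eu-cryptate antibody/streptavidin-XL665. HTRF 665/620 nm ratio read after 60 min; percent inhibition relative to DMSO and 10 μM imatinib controls.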

[2] = molecular target: Tb-labeled inactive PDGFRβ (Homo sapiens (Human), UniProt P09619); test: PDGFRβ LanthaScreen Assay; assay type: binding; settings: read-out: PDGFR Lantha IC50
Sequence of Tb-labeled inactive PDGFRβ (P09619 33-1106): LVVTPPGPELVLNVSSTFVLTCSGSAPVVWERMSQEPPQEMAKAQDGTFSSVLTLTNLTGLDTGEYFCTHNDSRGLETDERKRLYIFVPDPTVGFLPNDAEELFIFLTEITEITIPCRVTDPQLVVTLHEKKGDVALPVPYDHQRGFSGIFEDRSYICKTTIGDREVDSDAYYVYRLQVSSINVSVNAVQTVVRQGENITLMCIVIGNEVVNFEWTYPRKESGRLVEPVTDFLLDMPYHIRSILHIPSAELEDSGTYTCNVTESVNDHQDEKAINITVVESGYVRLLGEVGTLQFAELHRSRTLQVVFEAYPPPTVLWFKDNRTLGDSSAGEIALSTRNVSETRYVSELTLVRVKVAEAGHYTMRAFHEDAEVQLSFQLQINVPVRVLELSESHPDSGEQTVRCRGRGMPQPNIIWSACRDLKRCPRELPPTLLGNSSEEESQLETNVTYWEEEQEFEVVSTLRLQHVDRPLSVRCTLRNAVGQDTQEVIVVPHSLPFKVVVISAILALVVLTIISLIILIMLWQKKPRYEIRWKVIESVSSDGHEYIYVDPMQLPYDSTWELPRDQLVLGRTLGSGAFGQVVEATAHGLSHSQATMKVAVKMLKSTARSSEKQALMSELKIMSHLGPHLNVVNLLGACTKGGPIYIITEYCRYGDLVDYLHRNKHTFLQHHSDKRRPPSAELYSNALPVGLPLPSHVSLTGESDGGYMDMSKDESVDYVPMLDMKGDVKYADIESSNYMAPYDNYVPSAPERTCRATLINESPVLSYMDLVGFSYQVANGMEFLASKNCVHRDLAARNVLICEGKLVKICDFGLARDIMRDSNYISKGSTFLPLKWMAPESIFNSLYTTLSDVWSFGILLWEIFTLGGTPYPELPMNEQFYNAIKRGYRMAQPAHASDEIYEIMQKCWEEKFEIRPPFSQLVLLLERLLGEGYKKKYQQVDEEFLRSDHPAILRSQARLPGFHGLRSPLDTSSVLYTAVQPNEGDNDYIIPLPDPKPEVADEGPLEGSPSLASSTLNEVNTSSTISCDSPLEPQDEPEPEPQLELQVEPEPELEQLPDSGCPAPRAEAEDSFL

Sequence of PDGFRβ (Q05030 32-1097): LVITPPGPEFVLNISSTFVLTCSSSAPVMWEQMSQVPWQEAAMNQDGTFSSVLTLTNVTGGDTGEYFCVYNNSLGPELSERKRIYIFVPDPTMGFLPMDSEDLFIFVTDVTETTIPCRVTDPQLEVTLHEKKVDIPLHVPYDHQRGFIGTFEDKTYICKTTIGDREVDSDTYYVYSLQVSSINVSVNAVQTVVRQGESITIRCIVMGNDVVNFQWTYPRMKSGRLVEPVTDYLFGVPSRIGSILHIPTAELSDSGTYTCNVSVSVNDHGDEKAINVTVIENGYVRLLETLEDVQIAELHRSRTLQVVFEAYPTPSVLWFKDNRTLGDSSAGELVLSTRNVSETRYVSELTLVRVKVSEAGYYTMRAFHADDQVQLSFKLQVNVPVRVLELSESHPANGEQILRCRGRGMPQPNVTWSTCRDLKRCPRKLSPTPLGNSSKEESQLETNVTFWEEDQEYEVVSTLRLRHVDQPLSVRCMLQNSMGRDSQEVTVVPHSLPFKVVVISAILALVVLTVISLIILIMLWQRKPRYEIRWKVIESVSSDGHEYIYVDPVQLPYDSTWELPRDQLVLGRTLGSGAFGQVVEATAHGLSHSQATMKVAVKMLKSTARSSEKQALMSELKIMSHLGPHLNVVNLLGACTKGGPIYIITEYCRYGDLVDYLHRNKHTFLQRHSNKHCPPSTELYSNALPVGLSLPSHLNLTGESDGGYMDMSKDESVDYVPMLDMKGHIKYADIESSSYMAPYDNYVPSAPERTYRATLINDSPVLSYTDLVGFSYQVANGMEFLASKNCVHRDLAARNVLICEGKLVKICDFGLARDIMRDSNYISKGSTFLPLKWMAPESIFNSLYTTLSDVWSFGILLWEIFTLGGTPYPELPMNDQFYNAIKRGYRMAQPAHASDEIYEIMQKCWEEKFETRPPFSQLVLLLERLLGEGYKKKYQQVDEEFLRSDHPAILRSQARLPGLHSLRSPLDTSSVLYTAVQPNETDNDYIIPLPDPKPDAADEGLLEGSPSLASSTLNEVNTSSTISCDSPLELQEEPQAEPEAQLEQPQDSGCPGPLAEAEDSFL
Sequence of His6-TEV-PDGFRβ (557-1016) (P09619 557-1016): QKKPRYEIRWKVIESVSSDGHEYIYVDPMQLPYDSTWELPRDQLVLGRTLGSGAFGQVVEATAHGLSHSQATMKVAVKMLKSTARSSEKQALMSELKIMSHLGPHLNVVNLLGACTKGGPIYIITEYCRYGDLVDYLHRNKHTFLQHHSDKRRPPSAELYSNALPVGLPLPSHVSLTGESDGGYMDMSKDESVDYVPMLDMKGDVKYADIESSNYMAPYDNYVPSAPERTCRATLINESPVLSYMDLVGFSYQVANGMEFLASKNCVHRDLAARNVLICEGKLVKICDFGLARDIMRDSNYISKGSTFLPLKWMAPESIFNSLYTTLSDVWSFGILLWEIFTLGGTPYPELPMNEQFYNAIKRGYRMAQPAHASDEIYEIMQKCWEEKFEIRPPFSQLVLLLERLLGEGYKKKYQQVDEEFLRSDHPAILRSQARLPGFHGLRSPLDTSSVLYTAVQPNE

Q: COCCn1cc(-c2cn3ncc(C(=O)Nc4cc(NC(=O)CCN5CC6CCC5CC6)cnc4C)c3s2)cn1 [Example 100, N-(5-(3-(2-azabicyclo[2.2.2]octan-2-yl)propanamido)-2-methylpyridin-3-yl)-2-(1-(2-methoxyethyl)-1H-pyrazol-4-yl)pyrazolo[5,1-b]thiazole-7-carboxamide] was tested. Which IC50 (PDGFRβ) did it give?
A: 33.4 nM

Q: What about the IC50 [1] of the same compound?
A: 0.5 nM

Q: And the IC50 [2]?
A: 7.5 nM

Q: Which IC50 (PDGFRβ) does the source give for COCCn1cc(-c2cn3ncc(C(=O)Nc4cc(NC(=O)CCN5CCC56CCC6)cnc4C)c3s2)cn1 [Example 95, N-(5-(3-(1-azaspiro[3.3]heptan-1-yl)propanamido)-2-methylpyridin-3-yl)-2-(1-(2-methoxyethyl)-1H-pyrazol-4-yl)pyrazolo[5,1-b]thiazole-7-carboxamide] here?
A: 17.9 nM

Q: What about the IC50 [1] of the same compound?
A: 0.4 nM

Q: And the IC50 [2]?
A: 5.1 nM

Q: For Cc1ncc(C(=O)NCCN2CCC3(CCC3)C2)cc1NC(=O)c1cnn2cc(-c3cnn(C)c3)sc12 [Example 113, N-(5-((2-(6-azaspiro[3.4]octan-6-yl)ethyl)carbamoyl)-2-methylpyridin-3-yl)-2-(1-methyl-1H-pyrazol-4-yl)pyrazolo[5,1-b]thiazole-7-carboxamide], which IC50 (PDGFRβ) is on record?
A: 11.5 nM

Q: And the IC50 [1]?
A: < 0.1 nM

Q: And the IC50 [2]?
A: 1.4 nM

Q: With Cc1ncc(C(=O)NCCN2Cc3ncsc3C2)cc1NC(=O)c1cnn2cc(-c3cnn(C)c3)sc12 [Example 111, N-(5-((2-(4H-pyrrolo[3,4-d]thiazol-5 (6H)-yl)ethyl)carbamoyl)-2-methylpyridin-3-yl)-2-(1-methyl-1H-pyrazol-4-yl)pyrazolo[5,1-b]thiazole-7-carboxamide] as the compound, how does the IC50 (PDGFRβ) read?
A: 294 nM

Q: And the IC50 [1]?
A: 1.1 nM

Q: What about the IC50 [2] of the same compound?
A: 36.4 nM

Q: For Cc1ncc(C(=O)NCCN2CC3COCC3C2)cc1NC(=O)c1cnn2cc(-c3cnn(C)c3)sc12 (stereo not drawn) [Example 112, 2-(1-methyl-1H-pyrazol-4-yl)-N-(2-methyl-5-((2-(tetrahydro-1H-furo[3,4-c]pyrrol-5 (3H)-yl)ethyl)carbamoyl)pyridin-3-yl)pyrazolo[5,1-b]thiazole-7-carboxamide], which IC50 (PDGFRβ) is on record?
A: 159 nM

Q: And the IC50 [1]?
A: 0.5 nM

Q: And the IC50 [2]?
A: 12.6 nM

Q: What does the source list for Cc1ncc(C(=O)NCCN2CCOCC23CC3)cc1NC(=O)c1cnn2cc(-c3cnn(C)c3)sc12 [Example 110, N-(5-((2-(7-oxa-4-azaspiro[2.5]octan-4-yl)ethyl)carbamoyl)-2-methylpyridin-3-yl)-2-(1-methyl-1H-pyrazol-4-yl)pyrazolo[5,1-b]thiazole-7-carboxamide]?
A: IC50 (PDGFRβ): 35.4 nM; IC50 [1]: 0.6 nM; IC50 [2]: 5.7 nM

Q: Which results are given for COCCn1cc(-c2cn3ncc(C(=O)Nc4cc(C(=O)NCCN5CCC(F)(F)C5)cnc4C)c3s2)cn1 [Example 167, N-(5-((2-(3,3-difluoropyrrolidin-1-yl)ethyl)carbamoyl)-2-methylpyridin-3-yl)-2-(1-(2-methoxyethyl)-1H-pyrazol-4-yl)pyrazolo[5,1-b]thiazole-7-carboxamide]?
A: IC50 (PDGFRβ): 24.7 nM; IC50 [1]: 0.5 nM; IC50 [2]: 4.2 nM

Q: With Cc1ncc(C(=O)NCCN2CCC3(CC3)C2)cc1NC(=O)c1cnn2cc(-c3ccncc3)sc12 [Example 153, N-(5-((2-(5-azaspiro[2.4]heptan-5-yl)ethyl)carbamoyl)-2-methylpyridin-3-yl)-2-(pyridin-4-yl)pyrazolo[5,1-b]thiazole-7-carboxamide] as the compound, how does the IC50 (PDGFRβ) read?
A: 106 nM

Q: And the IC50 [1]?
A: 0.4 nM

Q: And the IC50 [2]?
A: 18 nM

Q: How did the IC50 (PDGFRβ) turn out when Cc1ncc(C(=O)NCCN2CCCC2(C)C)cc1NC(=O)c1cnn2cc(-c3cnn(C)c3C)sc12 [Example 173, 2-(1,5-dimethyl-1H-pyrazol-4-yl)-N-(5-((2-(2,2-dimethylpyrrolidin-1-yl)ethyl)carbamoyl)-2-methylpyridin-3-yl)pyrazolo[5,1-b]thiazole-7-carboxamide] was run?
A: 11.8 nM

Q: What about the IC50 [1] of the same compound?
A: 0.3 nM

Q: And the IC50 [2]?
A: 3.1 nM

Q: With Cc1ncc(C(=O)NCCN2CCCC2(C)C)cc1NC(=O)c1cnn2cc(-c3ccn(C)n3)sc12 [Example 9, N-(5-((2-(2,2-dimethylpyrrolidin-1-yl)ethyl)carbamoyl)-2-methylpyridin-3-yl)-2-(1-methyl-1H-pyrazol-3-yl)pyrazolo[5,1-b]thiazole-7-carboxamide] as the compound, how does the IC50 (PDGFRβ) read?
A: 16.8 nM

Q: And the IC50 [1]?
A: 0.3 nM

Q: What about the IC50 [2] of the same compound?
A: 3.5 nM

Q: How did the IC50 (PDGFRβ) turn out when Cc1ncc(C(=O)NCCN2CC(C)(C)C2)cc1NC(=O)c1cnn2cc(-c3cn(C)cn3)sc12 [Example 161] was run?
A: 123 nM

Q: And the IC50 [1]?
A: 0.5 nM

Q: What about the IC50 [2] of the same compound?
A: 11.9 nM

Q: Which results are given for Cc1ncc(C(=O)NCCN2CCCOCC2)cc1NC(=O)c1cnn2cc(-c3cnn(C)c3)sc12 [Example 121, N-(5-((2-(1,4-oxazepan-4-yl)ethyl)carbamoyl)-2-methylpyridin-3-yl)-2-(1-methyl-1H-pyrazol-4-yl)pyrazolo[5,1-b]thiazole-7-carboxamide]?
A: IC50 (PDGFRβ): 80.4 nM; IC50 [1]: 0.4 nM; IC50 [2]: 13.1 nM

Q: With Cc1ncc(C(=O)NCCN2CCCC2(C)C)cc1NC(=O)c1cnn2cc(-c3ccc(=O)[nH]n3)sc12 [Example 141, N-(5-((2-(2,2-dimethylpyrrolidin-1-yl)ethyl)carbamoyl)-2-methylpyridin-3-yl)-2-(6-oxo-1,6-dihydropyridazin-3-yl)pyrazolo[5,1-b]thiazole-7-carboxamide] as the compound, how does the IC50 (PDGFRβ) read?
A: > 3000 nM

Q: And the IC50 [1]?
A: 1.8 nM

Q: And the IC50 [2]?
A: 18.6 nM

Q: For Cc1ncc(NC(=O)NCCC2CCN(C)CC2)cc1NC(=O)c1cnn2cc(-c3cnn(C)c3)sc12 [Example 108, 2-(1-methyl-1H-pyrazol-4-yl)-N-(2-methyl-5-(3-(2-(1-methylpiperidin-4-yl)ethyl)ureido)pyridin-3-yl)pyrazolo[5,1-b]thiazole-7-carboxamide], which IC50 (PDGFRβ) is on record?
A: > 3000 nM

Q: And the IC50 [1]?
A: 10.7 nM

Q: What about the IC50 [2] of the same compound?
A: 490 nM

Q: For Cc1ncc(C(=O)NCCN2CCC(F)(F)CC2)cc1NC(=O)c1cnn2cc(-c3cccnc3)sc12 [Example 157, N-(5-((2-(4,4-difluoropiperidin-1-yl)ethyl)carbamoyl)-2-methylpyridin-3-yl)-2-(pyridin-3-yl)pyrazolo[5,1-b]thiazole-7-carboxamide], which IC50 (PDGFRβ) is on record?
A: 21.2 nM

Q: And the IC50 [1]?
A: 0.6 nM

Q: What about the IC50 [2] of the same compound?
A: 5.9 nM

Q: Which results are given for Cc1ncc(C(=O)NCCN2CC3CCC2CC3)cc1NC(=O)c1cnn2cc(-c3cnn(CC(N)=O)c3)sc12 [Example 150, N-(5-((2-(2-azabicyclo[2.2.2]octan-2-yl)ethyl)carbamoyl)-2-methylpyridin-3-yl)-2-(1-(2-amino-2-oxoethyl)-1H-pyrazol-4-yl)pyrazolo[5,1-b]thiazole-7-carboxamide]?
A: IC50 (PDGFRβ): > 2000 nM; IC50 [1]: 0.6 nM; IC50 [2]: 5.5 nM

Q: Which IC50 (PDGFRβ) does the source give for Cc1ncc(C(=O)NCCN2CCC3(CC3)C2)cc1NC(=O)c1cnn2cc(-c3cccnc3)sc12 [Example 159, N-(5-((2-(5-azaspiro[2.4]heptan-5-yl)ethyl)carbamoyl)-2-methylpyridin-3-yl)-2-(pyridin-3-yl)pyrazolo[5,1-b]thiazole-7-carboxamide] here?
A: 86.8 nM

Q: And the IC50 [1]?
A: 0.7 nM

Q: And the IC50 [2]?
A: 21.6 nM

Q: Which IC50 (PDGFRβ) does the source give for Cc1ncc(C(=O)NCCN2CCCC2(C)C)cc1NC(=O)c1cnn2cc(-c3cncnc3)sc12 [Example 139, N-(5-((2-(2,2-dimethylpyrrolidin-1-yl)ethyl)carbamoyl)-2-methylpyridin-3-yl)-2-(pyrimidin-5-yl)pyrazolo[5,1-b]thiazole-7-carboxamide] here?
A: 164 nM

Q: And the IC50 [1]?
A: 5.3 nM

Q: And the IC50 [2]?
A: 182 nM

Q: What does the source list for CC(=O)Nc1ccnc(-c2cn3ncc(C(=O)Nc4cc(C(=O)NCCN5CC6CCC5CC6)cnc4C)c3s2)c1 [Example 146, N-(5-((2-(2-azabicyclo[2.2.2]octan-2-yl)ethyl)carbamoyl)-2-methylpyridin-3-yl)-2-(4-acetamidopyridin-2-yl)pyrazolo[5,1-b]thiazole-7-carboxamide]?
A: IC50 (PDGFRβ): 858 nM; IC50 [1]: 0.6 nM; IC50 [2]: 4.3 nM

Q: What does the source list for Cc1ncc(C(=O)NCCN2CCCC2(C)C)cc1NC(=O)c1cnn2cc(-c3cn(C)nc3C)sc12 [Example 174, 2-(1,3-dimethyl-1H-pyrazol-4-yl)-N-(5-((2-(2,2-dimethylpyrrolidin-1-yl)ethyl)carbamoyl)-2-methylpyridin-3-yl)pyrazolo[5,1-b]thiazole-7-carboxamide]?
A: IC50 (PDGFRβ): 9.9 nM; IC50 [1]: 0.3 nM; IC50 [2]: 2.5 nM
